Data published in paper PMC9133015 (Nature Communications, 2022).
“And” between values parts separate entries of the source, which are not always exact repeats. Identical values can stand only once.

Experiments:
Test in all cases: Kinase inhibitor specificity profiling (Reaction Biology Corporation)
Type in all cases: biochemical
Design in all cases: % Enzyme Activity (relative to DMSO controls): concentration or dose not given beside the values
[1] = biological target: T1, panel of 370 protein kinases (Homo sapiens, UniProt Q13557); conditions: 2 h, kinase CAMK2d; read-out: % Enzyme Activity (relative to DMSO controls)
T1 construct: purchased Reaction Biology Corporation (assay service)

[2] = biological target: T2, panel of 370 protein kinases (Homo sapiens, UniProt P45984); conditions: kinase JNK2
T2 construct: purchased Reaction Biology Corporation (assay service)

[3] = biological target: T3, panel of 370 protein kinases (Homo sapiens, UniProt P32298); conditions: 2 h, kinase GRK4; read-out: % Enzyme Activity (relative to DMSO controls)
T3 construct: purchased Reaction Biology Corporation (assay service)

[4] = biological target: T4, panel of 370 protein kinases (Homo sapiens, UniProt P22694); conditions: 2 h, kinase PKAcb; read-out: % Enzyme Activity (relative to DMSO controls)
T4 construct: purchased Reaction Biology Corporation (assay service)

[5] = biological target: T5, panel of 370 protein kinases (Homo sapiens, UniProt Q14289); conditions: 2 h, kinase PYK2; read-out: % Enzyme Activity (relative to DMSO controls)
T5 construct: purchased Reaction Biology Corporation (assay service)

[6] = biological target: T6, panel of 370 protein kinases (Homo sapiens, UniProt P36896); conditions: 2 h, kinase ALK4/ACVR1B; read-out: % Enzyme Activity (relative to DMSO controls)
T6 construct: purchased Reaction Biology Corporation (assay service)

[7] = biological target: T7, panel of 370 protein kinases (Homo sapiens, UniProt Q86UX6); conditions: 2 h, kinase STK32C/YANK3; read-out: % Enzyme Activity (relative to DMSO controls)
T7 construct: purchased Reaction Biology Corporation (assay service)

[8] = biological target: T8, panel of 370 protein kinases (Homo sapiens, UniProt P51955); conditions: 2 h, kinase NEK2; read-out: % Enzyme Activity (relative to DMSO controls)
T8 construct: purchased Reaction Biology Corporation (assay service)

[9] = biological target: T9, panel of 370 protein kinases (Homo sapiens, UniProt P57059); conditions: kinase SIK1
T9 construct: purchased Reaction Biology Corporation (assay service)

[10] = biological target: T10, panel of 370 protein kinases (Homo sapiens, UniProt Q96GX5); conditions: kinase MASTL
T10 construct: purchased Reaction Biology Corporation (assay service)

[11] = biological target: T11, panel of 370 protein kinases (Homo sapiens, UniProt P36894); conditions: 2 h, kinase ALK3/BMPR1A; read-out: % Enzyme Activity (relative to DMSO controls)
T11 construct: purchased Reaction Biology Corporation (assay service)

[12] = biological target: T12, panel of 370 protein kinases (Homo sapiens, UniProt Q12851); conditions: 2 h, kinase GCK/MAP4K2; read-out: % Enzyme Activity (relative to DMSO controls)
T12 construct: purchased Reaction Biology Corporation (assay service)

[13] = biological target: T13, panel of 370 protein kinases (Homo sapiens, UniProt Q13627); conditions: 2 h, kinase DYRK1/DYRK1A; read-out: % Enzyme Activity (relative to DMSO controls)
T13 construct: purchased Reaction Biology Corporation (assay service)

[14] = biological target: T14, panel of 370 protein kinases (Homo sapiens, UniProt P09769); conditions: 2 h, kinase FGR; read-out: % Enzyme Activity (relative to DMSO controls)
T14 construct: purchased Reaction Biology Corporation (assay service)

[15] = test system: panel of 370 protein kinases
[16] = biological target: T15, panel of 370 protein kinases (Homo sapiens, UniProt Q9Y5S2); conditions: 2 h, kinase MRCKb/CDC42BPB; read-out: % Enzyme Activity (relative to DMSO controls)
T15 construct: purchased Reaction Biology Corporation (assay service)

[17] = biological target: T16, panel of 370 protein kinases (Homo sapiens, UniProt Q9Y463); conditions: 2 h, kinase DYRK1B; read-out: % Enzyme Activity (relative to DMSO controls)
T16 construct: purchased Reaction Biology Corporation (assay service)

[18] = biological target: T17, panel of 370 protein kinases (Homo sapiens, UniProt O75582); conditions: 2 h, kinase MSK1/RPS6KA5; read-out: % Enzyme Activity (relative to DMSO controls)
T17 construct: purchased Reaction Biology Corporation (assay service)

[19] = biological target: T18, panel of 370 protein kinases (Homo sapiens, UniProt Q6P3R8); conditions: 2 h, kinase NEK5; read-out: % Enzyme Activity (relative to DMSO controls)
T18 construct: purchased Reaction Biology Corporation (assay service)

[20] = biological target: T19, panel of 370 protein kinases (Homo sapiens, UniProt P22455); conditions: 2 h, kinase FGFR4; read-out: % Enzyme Activity (relative to DMSO controls)
T19 construct: purchased Reaction Biology Corporation (assay service)

[21] = biological target: T20, panel of 370 protein kinases (Homo sapiens, UniProt Q9H4A3); conditions: kinase WNK1
T20 construct: purchased Reaction Biology Corporation (assay service)

[22] = biological target: T21, panel of 370 protein kinases (Homo sapiens, UniProt P08631); conditions: 2 h, kinase HCK; read-out: % Enzyme Activity (relative to DMSO controls)
T21 construct: purchased Reaction Biology Corporation (assay service)

T2 sequence (P45984 whole entry): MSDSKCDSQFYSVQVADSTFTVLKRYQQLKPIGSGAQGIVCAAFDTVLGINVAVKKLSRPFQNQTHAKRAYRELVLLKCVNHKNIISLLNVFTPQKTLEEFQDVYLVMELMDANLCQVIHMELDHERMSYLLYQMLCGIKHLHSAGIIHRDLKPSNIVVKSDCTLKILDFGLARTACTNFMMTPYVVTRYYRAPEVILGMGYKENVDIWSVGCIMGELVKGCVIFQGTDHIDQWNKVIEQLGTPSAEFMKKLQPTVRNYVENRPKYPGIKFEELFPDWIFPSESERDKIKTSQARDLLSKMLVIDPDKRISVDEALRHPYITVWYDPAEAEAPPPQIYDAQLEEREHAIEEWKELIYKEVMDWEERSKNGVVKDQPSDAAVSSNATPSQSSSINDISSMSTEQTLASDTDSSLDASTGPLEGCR
T9 sequence (P57059 whole entry): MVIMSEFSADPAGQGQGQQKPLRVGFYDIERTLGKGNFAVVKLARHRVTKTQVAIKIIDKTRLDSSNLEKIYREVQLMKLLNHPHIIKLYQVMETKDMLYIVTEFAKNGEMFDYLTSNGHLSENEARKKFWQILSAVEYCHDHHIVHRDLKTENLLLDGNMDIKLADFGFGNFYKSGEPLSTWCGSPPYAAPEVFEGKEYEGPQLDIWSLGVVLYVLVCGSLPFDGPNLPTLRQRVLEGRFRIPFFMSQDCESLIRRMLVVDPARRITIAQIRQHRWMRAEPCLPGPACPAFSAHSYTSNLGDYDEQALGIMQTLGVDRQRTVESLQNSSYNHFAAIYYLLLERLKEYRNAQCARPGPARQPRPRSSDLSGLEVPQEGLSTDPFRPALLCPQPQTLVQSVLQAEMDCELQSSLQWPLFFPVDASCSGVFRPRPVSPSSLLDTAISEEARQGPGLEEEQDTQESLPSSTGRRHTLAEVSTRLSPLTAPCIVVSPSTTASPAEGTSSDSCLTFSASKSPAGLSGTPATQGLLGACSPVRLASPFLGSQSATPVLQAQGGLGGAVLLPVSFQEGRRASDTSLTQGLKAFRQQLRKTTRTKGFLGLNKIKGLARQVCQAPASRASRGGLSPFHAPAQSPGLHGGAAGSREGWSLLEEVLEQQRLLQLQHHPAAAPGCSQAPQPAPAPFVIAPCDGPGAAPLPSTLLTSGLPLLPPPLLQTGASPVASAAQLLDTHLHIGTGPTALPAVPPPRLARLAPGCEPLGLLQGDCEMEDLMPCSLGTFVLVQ
T10 sequence (Q96GX5 whole entry): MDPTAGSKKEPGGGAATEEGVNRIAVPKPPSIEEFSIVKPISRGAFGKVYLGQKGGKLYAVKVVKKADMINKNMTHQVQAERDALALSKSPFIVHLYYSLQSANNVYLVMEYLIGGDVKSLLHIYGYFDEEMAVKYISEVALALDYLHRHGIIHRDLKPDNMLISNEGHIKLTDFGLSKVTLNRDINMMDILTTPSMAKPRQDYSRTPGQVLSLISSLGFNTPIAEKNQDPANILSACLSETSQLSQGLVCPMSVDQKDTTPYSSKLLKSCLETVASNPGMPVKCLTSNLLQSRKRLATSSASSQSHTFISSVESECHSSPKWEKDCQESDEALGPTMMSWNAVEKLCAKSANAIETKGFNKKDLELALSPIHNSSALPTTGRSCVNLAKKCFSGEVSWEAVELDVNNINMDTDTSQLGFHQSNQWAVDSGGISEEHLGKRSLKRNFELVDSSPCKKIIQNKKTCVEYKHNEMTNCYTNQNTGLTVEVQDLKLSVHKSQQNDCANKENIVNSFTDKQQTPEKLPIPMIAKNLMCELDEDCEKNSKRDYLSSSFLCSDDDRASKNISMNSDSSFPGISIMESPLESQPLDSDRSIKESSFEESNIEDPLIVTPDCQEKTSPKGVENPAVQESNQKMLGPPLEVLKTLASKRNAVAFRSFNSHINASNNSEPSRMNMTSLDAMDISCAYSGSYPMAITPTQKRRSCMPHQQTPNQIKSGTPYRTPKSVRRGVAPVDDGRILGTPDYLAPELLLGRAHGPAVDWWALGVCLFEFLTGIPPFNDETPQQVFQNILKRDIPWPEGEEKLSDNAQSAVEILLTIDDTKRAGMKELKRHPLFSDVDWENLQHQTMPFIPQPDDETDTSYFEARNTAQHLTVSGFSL
T20 sequence (Q9H4A3 whole entry): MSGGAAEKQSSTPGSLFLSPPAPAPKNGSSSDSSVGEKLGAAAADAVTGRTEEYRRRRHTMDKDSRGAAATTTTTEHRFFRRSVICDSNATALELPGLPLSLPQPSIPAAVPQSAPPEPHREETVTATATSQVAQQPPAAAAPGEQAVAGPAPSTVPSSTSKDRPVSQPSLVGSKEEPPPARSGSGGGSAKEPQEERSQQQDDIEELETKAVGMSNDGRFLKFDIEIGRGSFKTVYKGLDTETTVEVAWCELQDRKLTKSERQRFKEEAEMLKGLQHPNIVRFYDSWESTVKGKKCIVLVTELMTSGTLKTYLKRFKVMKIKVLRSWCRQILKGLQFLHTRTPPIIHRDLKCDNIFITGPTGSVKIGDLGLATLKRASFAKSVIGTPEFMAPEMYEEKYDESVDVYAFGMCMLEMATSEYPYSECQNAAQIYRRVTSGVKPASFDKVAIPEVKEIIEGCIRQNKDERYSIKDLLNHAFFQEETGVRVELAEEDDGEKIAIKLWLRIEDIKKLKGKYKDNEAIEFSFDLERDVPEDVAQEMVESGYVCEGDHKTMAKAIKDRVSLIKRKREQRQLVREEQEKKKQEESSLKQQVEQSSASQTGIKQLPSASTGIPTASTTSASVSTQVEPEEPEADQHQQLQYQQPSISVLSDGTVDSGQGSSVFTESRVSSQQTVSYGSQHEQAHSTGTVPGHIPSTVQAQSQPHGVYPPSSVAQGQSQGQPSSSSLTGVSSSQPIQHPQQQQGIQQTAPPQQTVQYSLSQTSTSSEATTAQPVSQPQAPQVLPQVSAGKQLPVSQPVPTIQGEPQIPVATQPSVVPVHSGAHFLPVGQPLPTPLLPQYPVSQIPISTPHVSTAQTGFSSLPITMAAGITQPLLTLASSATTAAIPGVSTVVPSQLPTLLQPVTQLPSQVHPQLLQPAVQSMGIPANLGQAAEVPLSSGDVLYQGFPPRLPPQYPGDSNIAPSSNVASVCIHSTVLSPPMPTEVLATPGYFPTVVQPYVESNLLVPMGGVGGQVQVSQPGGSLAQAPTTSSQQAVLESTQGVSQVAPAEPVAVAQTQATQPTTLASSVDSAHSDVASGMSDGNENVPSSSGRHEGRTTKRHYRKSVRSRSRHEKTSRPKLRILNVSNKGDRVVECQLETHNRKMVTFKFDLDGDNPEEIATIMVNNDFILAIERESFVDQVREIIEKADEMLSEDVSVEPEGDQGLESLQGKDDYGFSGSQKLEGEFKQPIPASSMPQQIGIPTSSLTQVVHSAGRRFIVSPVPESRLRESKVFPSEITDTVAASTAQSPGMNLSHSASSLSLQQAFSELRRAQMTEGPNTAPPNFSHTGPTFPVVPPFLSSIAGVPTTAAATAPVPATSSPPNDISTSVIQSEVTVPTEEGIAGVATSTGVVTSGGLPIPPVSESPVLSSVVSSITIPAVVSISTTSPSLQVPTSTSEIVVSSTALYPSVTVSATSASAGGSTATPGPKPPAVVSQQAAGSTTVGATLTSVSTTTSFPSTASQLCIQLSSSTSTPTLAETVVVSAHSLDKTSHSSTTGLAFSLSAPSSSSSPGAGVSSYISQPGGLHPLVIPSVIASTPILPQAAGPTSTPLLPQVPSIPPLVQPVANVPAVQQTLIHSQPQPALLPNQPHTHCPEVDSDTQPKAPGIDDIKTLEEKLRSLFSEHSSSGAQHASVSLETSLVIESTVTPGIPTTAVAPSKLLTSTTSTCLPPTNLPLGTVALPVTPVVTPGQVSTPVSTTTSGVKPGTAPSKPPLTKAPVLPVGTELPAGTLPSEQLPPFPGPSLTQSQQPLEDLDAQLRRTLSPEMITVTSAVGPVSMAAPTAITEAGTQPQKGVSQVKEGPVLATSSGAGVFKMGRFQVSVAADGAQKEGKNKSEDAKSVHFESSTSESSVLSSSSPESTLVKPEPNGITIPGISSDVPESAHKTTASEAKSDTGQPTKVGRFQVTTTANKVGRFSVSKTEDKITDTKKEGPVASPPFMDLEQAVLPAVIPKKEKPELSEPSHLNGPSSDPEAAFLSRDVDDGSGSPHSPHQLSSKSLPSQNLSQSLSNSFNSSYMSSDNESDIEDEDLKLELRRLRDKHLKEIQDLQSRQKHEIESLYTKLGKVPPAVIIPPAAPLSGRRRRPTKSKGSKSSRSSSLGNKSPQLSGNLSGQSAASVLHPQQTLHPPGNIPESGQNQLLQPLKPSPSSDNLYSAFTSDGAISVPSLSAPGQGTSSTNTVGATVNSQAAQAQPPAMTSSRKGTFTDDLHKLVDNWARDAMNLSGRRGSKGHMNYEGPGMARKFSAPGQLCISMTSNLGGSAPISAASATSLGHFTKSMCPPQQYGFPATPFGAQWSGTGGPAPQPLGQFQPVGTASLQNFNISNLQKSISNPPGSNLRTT
T11 sequence (P36894 24-532): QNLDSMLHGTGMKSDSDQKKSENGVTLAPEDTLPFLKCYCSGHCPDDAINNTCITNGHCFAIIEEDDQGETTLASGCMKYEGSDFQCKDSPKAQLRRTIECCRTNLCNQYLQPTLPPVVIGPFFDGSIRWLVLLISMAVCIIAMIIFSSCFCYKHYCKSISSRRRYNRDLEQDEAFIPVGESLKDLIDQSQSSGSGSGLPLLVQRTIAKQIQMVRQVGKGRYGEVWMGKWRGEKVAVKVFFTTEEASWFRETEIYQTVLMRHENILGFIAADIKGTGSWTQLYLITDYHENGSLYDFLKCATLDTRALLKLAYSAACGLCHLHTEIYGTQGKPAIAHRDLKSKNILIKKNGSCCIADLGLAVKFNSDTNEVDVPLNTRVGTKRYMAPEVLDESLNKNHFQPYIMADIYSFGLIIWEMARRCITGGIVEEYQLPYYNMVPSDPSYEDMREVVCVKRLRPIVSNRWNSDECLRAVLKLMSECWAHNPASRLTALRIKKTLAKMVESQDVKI

CCN1CCN(C(=O)c2ccc(Nc3ncc(F)c(-c4ccc5nc(N(C)C)sc5c4)n3)nc2)CC1 [YK-2-69]
remaining activity at 1 µM [1]: 92.8% | % Enzyme Activity (relative to DMSO controls) [2]: 83.83% and 82.64% | remaining activity at 1 µM [3]: 95.1% | remaining activity at 1 µM [4]: 99.7% | remaining activity at 1 µM [5]: 110% | remaining activity at 1 µM [6]: 102% | remaining activity at 1 µM [7]: 96.8% | remaining activity at 1 µM [8]: 94.2% | % Enzyme Activity (relative to DMSO controls) [9]: 99.48% and 98.60% | % Enzyme Activity (relative to DMSO controls) [10]: 100.08% and 99.24% | remaining activity at 1 µM [11]: 168% | remaining activity at 1 µM [12]: 96% | remaining activity at 1 µM [13]: 61.3% | remaining activity at 1 µM [14]: 106% | kinase selectivity against 370 kinases ([15]; 1 µM): selectivity over 360+ kinases | % Enzyme Activity (relative to DMSO controls) ([15]; kinase LYN B): 102.77% and 100.49% | % Enzyme Activity (relative to DMSO controls) ([15]; kinase PKCb2): 92.22% and 91.87% | % Enzyme Activity (relative to DMSO controls) ([15]; kinase PKG1b): 114.44% and 107.54% | remaining activity at 1 µM [16]: 105% | remaining activity at 1 µM [17]: 40.7% | remaining activity at 1 µM [18]: 115% | remaining activity at 1 µM [19]: 72.1% | remaining activity at 1 µM [20]: 88.9% | % Enzyme Activity (relative to DMSO controls) [21]: 116.91% and 108.19% | remaining activity at 1 µM [22]: 105%
